test: Neuroprotective activity in human MC65 cells cultured in TC-deficient medium assessed as inhibition of TC-deficiency induced cell death by measuring increase in cell viability measured after 72 hrs by MTT assay; format: functional, cell-based; conditions: MC65, 72 h

SMILES | EC50 [nM]
COc1ccc(CCC2(CC(=O)NCCc3c[nH]c4ccc(OC)cc34)N=N2)cc1 | > 3000
COc1ccc2[nH]cc(CCNC(=O)CC(=O)/C=C/c3ccoc3)c2c1 | 336
O=C(CCc1ccc(O)cc1)CC(=O)NCCc1c[nH]c2ccc(O)cc12 | 364
COc1ccc2[nH]cc(CCNC(=O)C3CCC/C(=C\c4ccc(O)cc4)C3=O)c2c1 (racemic) | 224
[N-]=[N+]=Nc1ccc2[nH]cc(CCNC(=O)CC(=O)CCc3ccc(O)cc3)c2c1 | 16.5
COc1ccc2[nH]cc(CCNC(=O)CC(=O)/C=C/c3ccc(O)cc3)c2c1 | 29
C#CCOc1ccc2[nH]cc(CCNC(=O)CC3(CCc4ccc(O)cc4)N=N3)c2c1 | 26.1
COc1ccc2[nH]cc(CCNC(=O)CC(=O)/C=C/c3ccc4c(c3)OCO4)c2c1 | > 3000
COc1ccc2[nH]cc(CCNC(=O)CC(=O)CCc3ccc(O)cc3)c2c1 | 32.6
O=C(CC(O)CCc1ccc(O)cc1)NCCc1c[nH]c2ccc(O)cc12 (racemic) | 9.2
COc1ccc2[nH]cc(CCNC(=O)C3CCC(Cc4ccc(O)cc4)C3=O)c2c1 (racemic) | > 3000
COc1ccc2[nH]cc(CCNC(=O)C3CCCC(Cc4ccc(O)cc4)C3=O)c2c1 (racemic) | > 3000
COc1ccc2[nH]cc(CCNC(=O)CC(=O)/C=C/c3cccnc3)c2c1 | > 3000
COc1ccc2[nH]cc(CCNC(=O)CC3(CCc4ccc(O)cc4)N=N3)c2c1 | 56.2
O=C(CCc1ccc(O)cc1)CC(=O)NCCc1c[nH]c2ccc([N+](=O)[O-])cc12 | 500
C#CCOc1ccc2[nH]cc(CCNC(=O)CC(=O)CCc3ccc(O)cc3)c2c1 | 32
Nc1ccc2[nH]cc(CCNC(=O)CC(=O)CCc3ccc(O)cc3)c2c1 | > 3000
COc1ccc2[nH]cc(CCNC(=O)CC(=O)/C=C/c3ccc(N(C)C)cc3)c2c1 | 976
COc1ccc2[nH]cc(CCNC(=O)CC(=O)/C=C/c3ccco3)c2c1 | 228
COc1ccc(CCC(=O)CC(=O)NCCc2c[nH]c3ccc(OC)cc23)cc1 | 490
COc1ccc2[nH]cc(CCNC(=O)C3CC/C(=C\c4ccc(O)cc4)C3=O)c2c1 (racemic) | 127
COc1ccc2[nH]cc(CCNC(=O)CC(=O)/C=C/c3ccncc3)c2c1 | > 3000
O=C(/C=C/c1ccc(O)cc1)CC(=O)NCCc1c[nH]c2ccc(O)cc12 | 178
COc1ccc2[nH]cc(CCNC(=O)CC(=O)/C=C/c3ccc(F)cc3)c2c1 | 32.8
COc1ccc2[nH]cc(CCNC(=O)CC(=O)CCc3ccc(F)cc3)c2c1 | 33

Source: ChEMBL document CHEMBL4811265, “Structural understanding of 5-(4-hydroxy-phenyl)-N-(2-(5-methoxy-1H-indol-3-yl)-ethyl)-3-oxopentanamide as a neuroprotectant for Alzheimer's disease” (Bioorg Med Chem Lett, 2021)
